These results are taken from patent publication US20250332182A1, “Galactooligosaccharides for improving immune response” (N.V. Nutricia, priority 2021, published 2025).

The subject of data set [1] is IL-4, IL-6, IL-13, TNF-α and MIP-2. To be noted: re-stimulated splenocytes of vaccinated mice; dietary DON.
For data set [2], the system named is CD25+ FoxP3+ Treg cells. To be noted: spleen of vaccinated mice; DON in the diet.
Data set [3] relates to CXCR3+Th1 cells. Conditions: spleen; DON in the diet.
Data set [4] deals with T1ST2+Th2 cells. Conditions: spleen; DON in the diet.
Data set [5] has as its system vaccine-specific immunoglobulin. To be noted: vaccinated mice; DON in the diet.

Consider `CC1=C[C@H]2O[C@@H]3[C@H](O)C[C@](C)([C@@]2(CO)[C@H](O)C1=O)[C@]31CO1` [DON, deoxynivalenol], for which, in data set [1], the “concentrations of IL-4, IL-6, IL-13, TNF-α and MIP-2 in cell supernatants” value was “No significant effect”. Further, the “percentage of CD25+ FoxP3+ Treg cells” value in data set [2] is listed as “not significantly affected”. The “effect on CXCR3+Th1 cells” value in data set [3] is listed as “No significant effect”. Further, the “effect on T1ST2+Th2 cells” value in data set [4] is “No significant effect”. For the same molecule, the vaccine-specific immunoglobulin production result in data set [5] is on record as “reduced”.
